# Experimental data published in patent publication US20250093263A1, “FRET-BASED ASSAYS” (The General Hospital Corporation, priority 2021, published 2025).
# “And” between values parts separate entries of the source, which are not always exact repeats. Identical values can stand only once. Like-named read-outs stand apart in the source and are kept apart here. Marks after values point to notes of the source that are not given here.
# Assays:
# PfcProRS = target: T1, PfcProRS (Plasmodium falciparum, UniProt Q8I5R7); test: biochemical; type: binding
# T1 construct: made in house; host or cells: SoluBL-21 E. coli
# T1 sequence (Q8I5R7 249-746): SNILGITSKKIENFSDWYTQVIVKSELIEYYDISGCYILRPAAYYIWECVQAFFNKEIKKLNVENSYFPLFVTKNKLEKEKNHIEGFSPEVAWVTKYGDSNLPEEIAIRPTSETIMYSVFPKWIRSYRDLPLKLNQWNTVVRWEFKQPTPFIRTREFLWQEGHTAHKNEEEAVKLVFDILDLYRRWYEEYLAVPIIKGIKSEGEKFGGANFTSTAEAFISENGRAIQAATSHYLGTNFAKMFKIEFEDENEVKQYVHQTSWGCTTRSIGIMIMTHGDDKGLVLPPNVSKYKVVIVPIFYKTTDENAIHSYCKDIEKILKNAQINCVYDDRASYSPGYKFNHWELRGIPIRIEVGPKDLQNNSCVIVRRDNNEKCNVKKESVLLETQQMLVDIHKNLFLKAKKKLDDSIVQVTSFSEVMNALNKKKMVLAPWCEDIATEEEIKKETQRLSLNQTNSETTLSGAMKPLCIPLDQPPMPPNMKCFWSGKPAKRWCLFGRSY
# Protocol: (§1) A stock solution containing CoraFluor-1-Halo-labeled HT-PfcProRS or CoraFluor-1-Halo-labeled HT-HsProRS at the concentration specified for each experiment was prepared in assay buffer (50 mM Tris, pH 7.5, 20 mM KCl, 10 mM MgCl2, 0.05% Tween-20, 1 mM dithiothreitol, and 0.5 mg/mL BSA). […] Plates were mixed on an Ika MTS 2/4 Digital Microtiter Shaker at 750 rpm for 2 min, centrifuged at 1,000×g at 25° C. for 1 min. and allowed to equilibrate at room temperature for 2 h before TR-FRET measurements were taken. […] PRISM 9 (GraphPad) was used to perform non-linear regression analysis (one site—specific binding), plot dose-response curves, and calculate KD values.
# (§2) A Multidrop Combi Reagent Dispenser (ThermoFisher Scientific) was used to dispense 20 μL of 2× protein solution into each well. […] Plates were mixed on an Ika MTS 2/4 Digital Microtiter Shaker at 750 rpm for 2 min, centrifuged at 1,000×g at 25° C. for I min, and allowed to equilibrate for 2 h at room temperature before TR-FRET measurements were taken.
# (§3) PRISM 9 (GraphPad) was used to perform non-linear regression analysis (log(inhibitor) vs. response—Variable slope (four parameters)), plot dose-response curves, and calculate iC50 values.
# (§4) Test compounds were dispensed in duplicate, triplicate, or sextuplicate dose-response format using a D300 digital dispenser (Hewlett Packard). […] Plates were mixed on an Ika MTS 2/4 Digital Microtiter Shaker at 750 rpm for 2 min, centrifuged at 1,000×g at 25° C. for 1 min, and allowed to equilibrate for 2 h at room temperature.
# (§5) GraphPad PRISM was used to perform non-linear regression (log(inhibitor) vs. response—Variable slope (four parameters)), plot dose-response curves, and calculate IC50 values.
# (§6) This assay was generally conducted in the same manner as the CoraFluor-1-Halo format with minor differences. […] Each well was supplemented with 1 nM CoraFluor-1-Pfp-labeled anti-His6 antibody before the 2 h incubation.
# (§7) TR-FRET measurements were acquired in kinetic mode (1 read every ˜45 s) for at least 10 min.
# P. falciparum Dd2-2D4 = test: P. falciparum asexual blood stage growth assay, wild type; details: for EC50: read-out: Dd2 (EC50 [nM]) wt; for percent growth at 10 μM: Dd2 wt, shown because compound had <50% growth inhibition
# HsProRS = target: T2, HsProRS (Homo sapiens, UniProt P07814); test: TR-FRET ProRS ligand displacement / saturation binding assay, HsProRS; details: for fold less tightly bound to HT-HsProRS relative to HT-PfcProRS: tracer KD ratio
# T2 construct: made in house; host or cells: SoluBL-21 E. coli
# T2 sequence (P07814 996-1512): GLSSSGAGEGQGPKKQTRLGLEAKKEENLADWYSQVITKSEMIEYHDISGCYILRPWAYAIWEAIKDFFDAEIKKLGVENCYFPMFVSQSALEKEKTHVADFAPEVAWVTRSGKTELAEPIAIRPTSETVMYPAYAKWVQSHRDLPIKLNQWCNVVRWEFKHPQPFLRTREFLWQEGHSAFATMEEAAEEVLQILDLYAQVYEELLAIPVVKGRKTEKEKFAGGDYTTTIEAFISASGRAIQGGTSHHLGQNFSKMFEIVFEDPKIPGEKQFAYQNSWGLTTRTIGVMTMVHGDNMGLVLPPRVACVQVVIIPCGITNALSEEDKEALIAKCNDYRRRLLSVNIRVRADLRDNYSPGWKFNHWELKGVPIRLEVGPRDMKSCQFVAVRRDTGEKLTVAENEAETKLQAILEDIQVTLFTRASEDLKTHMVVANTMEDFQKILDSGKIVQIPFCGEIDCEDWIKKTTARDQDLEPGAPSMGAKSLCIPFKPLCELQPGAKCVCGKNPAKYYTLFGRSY
# Protocol: as §1, §2, §3, §4, §5, §6, §7
# [1] = tested on: halofuginone-induced P. falciparum (elevated proline homeostasis); test: P. falciparum asexual blood stage growth assay, halofuginone-induced parasites; details: for EC50: Plasmodium falciparum, DD2, 72 h, read-out: Dd2 (EC50 [nM]) Halofuginone-induced; for percent growth at 10 μM: halofuginone-induced, shown because compound had <50% growth inhibition
# Keap1 (His/GST) [2] = target: T3, Keap1 (His/GST) (Homo sapiens, UniProt Q14145); test: Keap1 TR-FRET Assay 3 (CDDO-FITC/Tb-Anti-6xHis); type: binding
# T3 sequence (Q14145 whole entry): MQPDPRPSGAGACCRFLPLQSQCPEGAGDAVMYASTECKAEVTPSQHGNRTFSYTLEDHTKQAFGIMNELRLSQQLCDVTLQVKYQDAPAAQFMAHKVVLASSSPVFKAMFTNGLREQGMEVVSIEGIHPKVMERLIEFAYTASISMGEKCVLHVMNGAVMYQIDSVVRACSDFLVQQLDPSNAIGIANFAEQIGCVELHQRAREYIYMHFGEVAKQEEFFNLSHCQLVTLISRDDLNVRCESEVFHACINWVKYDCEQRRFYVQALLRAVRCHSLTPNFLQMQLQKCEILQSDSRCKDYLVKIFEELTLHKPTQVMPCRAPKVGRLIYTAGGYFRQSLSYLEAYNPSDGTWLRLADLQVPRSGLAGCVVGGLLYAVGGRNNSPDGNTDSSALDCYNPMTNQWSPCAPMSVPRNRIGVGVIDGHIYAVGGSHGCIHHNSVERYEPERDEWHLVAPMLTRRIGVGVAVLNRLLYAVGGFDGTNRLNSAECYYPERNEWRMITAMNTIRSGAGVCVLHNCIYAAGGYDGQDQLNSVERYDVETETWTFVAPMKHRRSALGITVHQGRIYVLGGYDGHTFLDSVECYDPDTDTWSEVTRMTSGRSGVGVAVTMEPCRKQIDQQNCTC
# Keap1 (His/GST) [3] = target: T3, Keap1 (His/GST); test: biochemical
# BRD4 in MCF7 cells = target: T4, BRD4 in MCF7 cells (Homo sapiens, UniProt O60885); test: TR-FRET BRD4 quantification after degrader treatment, MCF7 cells; type: cell-based; details: for rescue of CS-JQ1-mediated BRD4 degradation: 250 nM CS-JQ1, 1 μM rescue compound or 10 μM JQ1; for rescue of dBET6-induced BRD4 degradation: 250 nM dBET6, 1 μM rescue compound or 10 μM JQ1, 5 h
# T4 construct: TR-FRET-based quantification of BRD4 levels in unmodified cell lines after degrader treatment; endogenous in cells; host or cells: MCF7
# Protocol: Cells were incubated for 5 h at 37° C. and 5% CO2 then media was replaced with pre-warmed cell culture medium (1 mL/well) and residual test compound was washed out for 1 h at 37° C. and 5% CO2. After, media was aspirated and cells were washed with PBS (2 mL/well), followed by the addition of ice-cold lysis buffer (200 μL/well). The plate was shaken at 200 rpm on an orbital shaker (IKA KS 260 basic) for 10 min, then lysate was transferred to 1.5 mL Eppendorf tubes and further incubated with slow, end-over-end mixing for 10 min at 4° C. […] TR-FRET ratios were background-subtracted from wells containing lysis buffer, 0.5 mg/mL BSA, and detection mix, then normalized to total protein concentration. The average TR-FRET intensity was normalized to DMSO for each biological replicate before being analyzed in Prism 9. […] Cell treatment, lysate preparation and TR-FRET analysis was performed as described above.
# BRD4 in MDA-MB-231 cells = target: T5, BRD4 in MDA-MB-231 cells (Homo sapiens, UniProt O60885); test: TR-FRET BRD4 quantification after degrader treatment, MDA-MB-231 cells; type: cell-based; details: for rescue of CS-JQ1-mediated BRD4 degradation: 250 nM CS-JQ1, 1 μM rescue compound or 10 μM JQ1; for rescue of dBET6-induced BRD4 degradation: 250 nM dBET6, 1 μM rescue compound or 10 μM JQ1, 5 h
# T5 construct: TR-FRET-based quantification of BRD4 levels in unmodified cell lines after degrader treatment; endogenous in cells; host or cells: MDA-MB-231
# Protocol: Cells were incubated for 5 h at 37° C. and 5% CO2 then media was replaced with pre-warmed cell culture medium (1 mL/well) and residual test compound was washed out for 1 h at 37° C. and 5% CO2. After, media was aspirated and cells were washed with PBS (2 mL/well), followed by the addition of ice-cold lysis buffer (200 μL/well). The plate was shaken at 200 rpm on an orbital shaker (IKA KS 260 basic) for 10 min, then lysate was transferred to 1.5 mL Eppendorf tubes and further incubated with slow, end-over-end mixing for 10 min at 4° C. […] TR-FRET ratios were background-subtracted from wells containing lysis buffer, 0.5 mg/mL BSA, and detection mix, then normalized to total protein concentration. The average TR-FRET intensity was normalized to DMSO for each biological replicate before being analyzed in Prism 9.
# Cells were incubated for 5 h at 37° C. and 5% CO2 then media was replaced with pre-warmed cell culture medium (150 μL/well) and residual test compound was washed out for 1 h at 37° C. and 5% CO2. After, media was aspirated and cells were washed with PBS (200 μL/well), followed by the addition of ice-cold lysis buffer (60 L/well). […] Optionally, after TR-FRET measurements, 5 μL/well of CellTiter-Glo 2.0 reagent (Promega G9241) was added to the wells of the 384-well plate and allowed to equilibrate for 10 minutes before luminescence intensity was recorded on a Tecan SPARK plate reader (luminescence module, no attenuation, 250 ms integration time, output Counts/s). TR-FRET ratios were background-subtracted from wells containing lysis buffer, 0.5 mg/mL BSA, and detection mix.
# [4] = dose-titration of ATP and proline against tracer MAT379, read-out: PfcProRS KD of substrates
# [5] = PfcProRS (KD [nM]) +proline, 100 μM proline
# [6] = PfcProRS (KD [nM]) −, absence of substrates
# [7] = absence of substrates, read-out: HsProRS (KD [nM]) −
# [8] = read-out: HsProRS (KD [nM]) +proline, 100 μM proline
# [9] = Plasmodium falciparum, DD2, 72 h
# [10] = PfcProRS KD, substrate condition not given
# [11] = substrate condition not given, read-out: HsProRS KD
# [12] = dose-titration of tracer on HT-HsProRS, read-out: HsProRS KD of tracers
smiles,measurement,setting,value
"O=C(CC1NCCCC1O)Cn1cnc2cc(Br)c(Cl)cc2c1=O (centres unmarked) [halofuginone, reference compound]",fold increased affinity in the presence of ATP,PfcProRS; 500 μM ATP vs 0 μM ATP,"> 6,000 fold"
Nc1ncnc2c1ncn2[C@@H]1O[C@H](COP(=O)(O)OP(=O)(O)OP(=O)(O)O)[C@@H](O)[C@H]1O [ATP],Kd,PfcProRS; [4],892000 nM
"Nc1ncnc2c1ncn2[C@@H]1O[C@H](COS(=O)(=O)NC(=O)[C@@H]2CCCN2)[C@@H](O)[C@H]1O [ProSA, prolyl-sulfamoyl adenosine, reference compound]",EC50,"P. falciparum Dd2-2D4; wild-type Dd2-2D4, 72 h growth",151 nM
"O=C(NC1Cc2ccccc2C1)c1nccnc1NC(=O)N1CCC(CNC(=O)[C@@H]2CCCN2)CC1 [MAT345, (S)-N-(2,3-dihydro-1H-inden-2-y)-3-(4-((pyrrolidine-2-carboxamido)methyl)piperidine-1-carboxamido)pyrazine-2-carboxamide]",Kd,PfcProRS; [5],35.9 nM
same,Kd,PfcProRS; [6],39.8 nM
same,Kd,HsProRS; [7],140 nM
same,Kd,HsProRS; [8],282 nM
same,EC50,P. falciparum Dd2-2D4; [9],249 nM
same,EC50,[1],7210 nM
"NCCOCCOCCCCCCN(C[C@H]1O[C@@H](n2cnc3c(N)ncnc32)[C@H](O)[C@@H]1O)S(=O)(=O)NC(=O)[C@@H]1CCCN1 [MAT556, (S)-N-(N-(((2R,3S,4R,5R)-5-(6-amino-9H-purin-9-yl)-3,4-dihydroxytetrahydrofuran-2-yl)methyl)-N-(6-(2-(2-aminoethoxy)ethoxy)hexyl)sulfamoyl)pyrrolidine-2-carboxamide]",Kd,PfcProRS; [10],195 nM
same,Kd,HsProRS; [11],33.7 nM
O=C(O)[C@@H]1CCCN1 [proline],Kd,PfcProRS; [4],457000 nM
same,Kd,"HsProRS; read-out: HsProRS KD of proline, competition with MAT379",67100 nM
O=C(CCCCCNC(=S)Nc1ccc(-c2c3ccc(=O)cc-3oc3cc(O)ccc23)c(C(=O)O)c1)NC1CCN(C(=O)Nc2nccnc2C(=O)NC2Cc3ccccc3C2)CC1 [MAT379],koff,"PfcProRS; 10-fold dilution of 100 nM HT-PfcProRS and 560 nM MAT379, read-out: first-order dissociation rate constant (koff)",< 0.00267 s⁻¹
same,Kd,"PfcProRS; absence of substrates, read-out: PfcProRS (KD [nM]) −",100 nM
same,Kd,HsProRS; [12],1700 nM
same,fold less tightly bound to HT-HsProRS relative to HT-PfcProRS,HsProRS,17 fold and > 15 fold
"Nc1ncnc2c1ncn2[C@@H]1O[C@H](CNS(=O)(=O)NC(=O)[C@@H]2CCCN2)[C@@H](O)[C@H]1O [ProSNA, (S)-N-(N-(((2R,3S,4R,5R)-5-(6-amino-9H-purin-9-yl)-3,4-dihydroxytetrahydrofuran-2-yl)methyl)sulfamoyl)pyrrolidine-2-carboxamide]",Kd,PfcProRS; [10],< 1 nM
same,Kd,HsProRS; [11],< 1 nM
same,EC50,P. falciparum Dd2-2D4; [9],172 nM
"CC1(C)CC[C@]2(C(=O)O)CC[C@]3(C)[C@H](C(=O)C=C4[C@@]5(C)C=C(C#N)C(=O)C(C)(C)[C@@H]5CC[C@]43C)[C@@H]2C1 [CDDO, (4aS,6aR,6bS,8aR,12aS,14aR,14bS)-11-cyano-2,2,6a,6b,9,9,12a-heptamethyl-10,14.dioxo-1,3,4,5,6,6a,6b,7,8,8a,9,10,12a,14,14a,14b-hexadecahydropicene-4a(2H)-carboxylic acid]",IC50,Keap1 (His/GST) [2],4 nM
same,IC50,Keap1 (His/GST) [3],224000 nM
CC[C@H](C)[C@H](N)C(=O)NS(=O)(=O)NC[C@H]1O[C@@H](n2cnc3c(N)ncnc32)[C@H](O)[C@@H]1O [IleSNA],IC50,"P. falciparum Dd2-2D4; Plasmodium falciparum, DD2, read-out: ABS IC50",1.19 nM
NS(=O)(=O)OC[C@@H]1C[C@@H](n2ccc3c(N[C@H]4CCc5ccccc54)ncnc32)C[C@@H]1O [MLN4924],rescue of CS-JQ1-mediated BRD4 degradation,BRD4 in MCF7 cells,substantially rescued
same,rescue of dBET6-induced BRD4 degradation,BRD4 in MCF7 cells,attenuated
same,rescue of CS-JQ1-mediated BRD4 degradation,BRD4 in MDA-MB-231 cells,substantially rescued
same,rescue of dBET6-induced BRD4 degradation,BRD4 in MDA-MB-231 cells,attenuated
"O=C(NC1Cc2ccccc2C1)c1nccnc1NC(=O)N1CCC(NC(=O)[C@@H]2CCCN2)CC1 [MAT334, (S)-N-(2,3-dihydro-1H-inden-2-yl)-3-(4-(pyrrolidine-2-carboxamido)piperidine-1-carboxamido)pyrazine-2-carboxamide]",Kd,PfcProRS; [5],660 nM
same,Kd,PfcProRS; [6],1380 nM
same,Kd,HsProRS; [8],2130 nM
same,percent growth at 10 μM,P. falciparum Dd2-2D4,76%†
same,percent growth at 10 μM,[1],59%†
"CC(C)(C)OC(=O)NC1CCN(C(=O)Nc2nccnc2C(=O)NC2Cc3ccccc3C2)CC1 [Compound 7, tert-butyl (1-((3-((2,3-dihydro-1H-inden-2-yl)carbamoyl)pyrazin-2-yl)carbamoyl)piperidin-4-yl)carbamate]",Kd,PfcProRS; [5],13.2 nM
same,Kd,PfcProRS; [6],13.1 nM
same,EC50,P. falciparum Dd2-2D4; [9],90.6 nM
same,EC50,[1],2170 nM
CC(C)C[C@H](NC(=O)[C@H](Cc1ccccc1)NC(=O)c1cnccn1)B(O)O [bortezomib],rescue of CS-JQ1-mediated BRD4 degradation,BRD4 in MCF7 cells,substantially rescued
same,rescue of dBET6-induced BRD4 degradation,BRD4 in MCF7 cells,attenuated
same,rescue of CS-JQ1-mediated BRD4 degradation,BRD4 in MDA-MB-231 cells,substantially rescued
same,rescue of dBET6-induced BRD4 degradation,BRD4 in MDA-MB-231 cells,attenuated
"CC(C)(C)OC(=O)N1CCC[C@H]1C(=O)NC1CCN(C(=O)Nc2nccnc2C(=O)NC2Cc3ccccc3C2)CC1 [Compound 31, tert-butyl (S)-2-((1-((3-((2,3-dihydro-1H-inden-2-yl)carbamoyl)pyrazin-2-yl)carbamoyl)piperidin-4-yl)carbamoyl)pyrrolidine-1-carboxylate]",Kd,PfcProRS; [5],1990 nM
same,Kd,PfcProRS; [6],2300 nM
same,Kd,HsProRS,> 5000 nM
same,percent growth at 10 μM,P. falciparum Dd2-2D4,102%†
same,percent growth at 10 μM,[1],98%†
"O=C(CCCCCNC(=S)Nc1ccc(C(=O)O)c(-c2c3ccc(=O)cc-3oc3cc(O)ccc23)c1)NCC1CCN(C(=O)Nc2nccnc2C(=O)NC2Cc3ccccc3C2)CC1 [MAT425, 4-(3-(6-(((1-((3-((2,3-dihydro-1H-inden-2-yl)carbamoyl)pyrazin-2-yl)carbamoyl)piperidin-4-yl)methyl)amino)-6-oxohexyl)thioureido)-2-(6-hydroxy-3-oxo-3H-xanthen-9-yl)benzoic acid]",Kd,PfcProRS; [6],199 nM
same,Kd,HsProRS; [12],> 10000 nM
same,fold less tightly bound to HT-HsProRS relative to HT-PfcProRS,HsProRS,> 50 fold
O=C(CCCCCNC(=S)Nc1ccc(-c2c3ccc(=O)cc-3oc3cc(O)ccc23)c(C(=O)O)c1)NCCCCCC(=O)NC1CCN(C(=O)Nc2nccnc2C(=O)NC2Cc3ccccc3C2)CC1 [MAT422],Kd,"PfcProRS; KD, PfcProRS of alternative tracer, tracer binding, conditions not stated",1280 nM
same,Kd,HsProRS; [12],> 4000 nM
NS(=O)(=O)OC[C@H]1C[C@@H](Nc2ccnc3cc(-c4cccc(SC(F)(F)F)c4)nn23)[C@H](O)[C@@H]1O [MLN7243],rescue of CS-JQ1-mediated BRD4 degradation,BRD4 in MCF7 cells,substantially rescued
same,rescue of dBET6-induced BRD4 degradation,BRD4 in MCF7 cells,attenuated
same,rescue of CS-JQ1-mediated BRD4 degradation,BRD4 in MDA-MB-231 cells,substantially rescued
same,rescue of dBET6-induced BRD4 degradation,BRD4 in MDA-MB-231 cells,attenuated
"COC1=CC(=O)C(O)=C/C1=C\C=C\c1ccccc1 [OBT, obtusaquinone]",IC50,Keap1 (His/GST) [2],3390 nM
same,IC50,Keap1 (His/GST) [3],24600 nM
"CC(C)(C)OC(=O)N1CCC[C@H]1C(=O)NCC1CCN(C(=O)Nc2nccnc2C(=O)NC2Cc3ccccc3C2)CC1 [Compound 32, tert-butyl (S)-2-(((1-((3-((2,3-dihydro-1H-inden-2-yl)Carbamoyl)pyrazin-2-yl)carbamoyl)piperidin-4-yl)methyl)carbamoyl)pyrrolidine-1-carboxylate]",Kd,PfcProRS; [5],5.35 nM
same,Kd,PfcProRS; [6],6.67 nM
same,Kd,HsProRS; [7],72.1 nM
same,Kd,HsProRS; [8],270 nM
same,EC50,P. falciparum Dd2-2D4; [9],63.2 nM
same,EC50,[1],1530 nM
